Patent US12612363B2, “Recrystallisation of 5-methoxy-N,N-dimethyltryptamine(5-MeO-DMT)” (GH RESEARCH IRELAND LIMITED, priority 2019, dated 2026)
Values after ≈ are worked out from the molar mass of the structure shown.

Test: Solubility screen of 5-MeO-DMT in solvents at room temperature and reflux
Conditions: for solubility: thermodynamic from solid
Method: A solubility screen of 5-MeO-DMT was performed on a number of solvents at both room temperature and reflux.

Which results are given for `COc1ccc2[nH]cc(CCN(C)C)c2c1` [5-MeO-DMT, 5-Methoxy-N,N-dimethyltryptamine]?
solubility (2-methyltetrahydrofuran, organic solvent or mixture, 5-MeO-DMT Solubility Ambient, solvent 2-Methyltetrahydrofuran (2-MeTHF), ambient (room temperature)): 250 mg/mL (≈ 1150 mM); solubility (acetone, organic solvent or mixture, 5-MeO-DMT Solubility Ambient, solvent Acetone, ambient (room temperature)): 530 mg/mL (≈ 2430 mM); solubility (ethanol, organic solvent or mixture, 5-MeO-DMT Solubility Ambient, solvent Ethanol, ambient (room temperature)): 340 mg/mL (≈ 1560 mM); solubility (ethyl acetate, organic solvent or mixture, 5-MeO-DMT Solubility Ambient, solvent Ethyl Acetate, ambient (room temperature)): 260 mg/mL (≈ 1190 mM); solubility (heptanes, organic solvent or mixture, 5-MeO-DMT Solubility Ambient, solvent Heptanes, ambient (room temperature)): < 50 mg/mL; solubility (heptanes, organic solvent or mixture, 5-MeO-DMT Solubility Reflux, solvent Heptanes, reflux): < 50 mg/mL; solubility (in words) (in MTBE at room temperature): not observed to be soluble; solubility (in words) (in MTBE when the temperature of the solvent was increased): very soluble; solubility (in words) (in heptanes): Poor solubility; solubility (in words) (in water): Poor solubility; solubility (isopropanol, organic solvent or mixture, 5-MeO-DMT Solubility Ambient, solvent Isopropanol (IPA), ambient (room temperature)): 180 mg/mL (≈ 825 mM); solubility (isopropyl acetate, organic solvent or mixture, 5-MeO-DMT Solubility Ambient, solvent Isopropyl acetate (IPAc), ambient (room temperature)): 210 mg/mL (≈ 962 mM); solubility (methyl tert-butyl ether, organic solvent or mixture, 5-MeO-DMT Solubility Ambient, solvent Methyl tert-butyl ether (MTBE), ambient (room temperature)): < 50 mg/mL; solubility (methyl tert-butyl ether, organic solvent or mixture, 5-MeO-DMT Solubility Reflux, solvent Methyl tert-butyl ether (MTBE), reflux): 420 mg/mL (≈ 1920 mM); 5-MeO-DMT Solubility Ambient (vols.) (solvent 2-Methyltetrahydrofuran (2-MeTHF), ambient (room temperature)): 4.0 vols.; 5-MeO-DMT Solubility Ambient (vols.) (solvent Acetone, ambient (room temperature), volumes of solvent for complete dissolution of 200 mg): 1.9 vols.; 5-MeO-DMT Solubility Ambient (vols.) (solvent Ethanol, ambient (room temperature)): 2.9 vols.; 5-MeO-DMT Solubility Ambient (vols.) (solvent Ethyl Acetate, ambient (room temperature)): 3.9 vols.; 5-MeO-DMT Solubility Ambient (vols.) (solvent Heptanes, ambient (room temperature)): >20 vols.; 5-MeO-DMT Solubility Reflux (vols.) (solvent Heptanes, reflux): >20 vols.; 5-MeO-DMT Solubility Ambient (vols.) (solvent Isopropanol (IPA), ambient (room temperature)): 5.6 vols.; 5-MeO-DMT Solubility Ambient (vols.) (solvent Isopropyl acetate (IPAc), ambient (room temperature)): 4.8 vols.; 5-MeO-DMT Solubility Ambient (vols.) (solvent Methyl tert-butyl ether (MTBE), ambient (room temperature)): >20 vols.; 5-MeO-DMT Solubility Reflux (vols.) (solvent Methyl tert-butyl ether (MTBE), reflux): 2.4 vols.; 5-MeO-DMT Solubility Ambient (vols.) (solvent Toluene, ambient (room temperature)): 5.1 vols.; 5-MeO-DMT Solubility Ambient (vols.) (solvent Water, ambient (room temperature)): >20 vols.; 5-MeO-DMT Solubility Reflux (vols.) (solvent Water, reflux): >20 vols.; solubility (toluene, organic solvent or mixture, 5-MeO-DMT Solubility Ambient, solvent Toluene, ambient (room temperature)): 200 mg/mL (≈ 916 mM); solubility (water, 100 °C, 5-MeO-DMT Solubility Reflux, solvent Water, reflux): < 50 mg/mL; solubility (water, 5-MeO-DMT Solubility Ambient, solvent Water, ambient (room temperature)): < 50 mg/mL
